Data set [1] relates to Rattus norvegicus. Kind of data set: Toxicity in oral-dosed Sprague-Dawley rat assessed as biliary lesion after 4 days. The class given is organism-based. As to conditions: in vivo, 96 h.
Data set [2] deals with Rattus norvegicus. Kind of data set: Toxicity in Sprague-Dawley rat assessed as biliary lesion at 10 mg/kg, po qd for 10 days. As to conditions: in vivo, 240 h. In kind it is organism-based.
Data set [3] deals with Liver. Kind of data set: Prodrug conversion in oral-dosed Sprague-Dawley rat liver assessed as 3-(4-(6-(4-chlorophenyl)-4-oxopyrrolo[1,2-f][1,2,4]triazin-3(4H)-yl)-2-methoxyphenoxy)-2-hydroxypropanoic acid formation. In kind it is ADME, tissue-based. As to conditions: in vivo.
The subject of data set [4] is Liver. In words: Prodrug conversion in oral-dosed Sprague-Dawley rat liver assessed as 6-(4-chlorophenyl)-3-(4-(2,3-dihydroxypropoxy)-3-methoxyphenyl)pyrrolo[1,2-f][1,2,4]triazin-4(3H)-one formation. In kind it is ADME, tissue-based. The note with it: in vivo.
Data set [5] concerns Rattus norvegicus. Kind of data set: Antiobesity activity in Sprague-Dawley rat assessed as body weight reduction at 10 mg/kg, po qd after 4 days relative to control. The class given is functional. As to conditions: 96 h.
Data set [6] relates to Plasma. Kind of data set: Fraction unbound in Sprague-Dawley rat plasma assessed as 6-(4-chlorophenyl)-3-(4-(2-hydroxypropoxy)-3-methoxyphenyl)pyrrolo[1,2-f][1,2,4]triazin-4(3H)-one level. In kind it is ADME, cell-free.
The subject of data set [7] is Brain. In words: Drug concentration in Sprague-Dawley rat brain assessed as 6-(4-chlorophenyl)-3-(4-(2-hydroxypropoxy)-3-methoxyphenyl)pyrrolo[1,2-f][1,2,4]triazin-4(3H)-one level at 30 mg/kg, po qd after 10 days. As to conditions: in vivo, 240 h, read-out: Drug uptake. The class given is ADME, organism-based.
Data set [8] has as its system Brain. Kind of data set: Free drug level in Sprague-Dawley rat brain assessed as 6-(4-chlorophenyl)-3-(4-(2-hydroxypropoxy)-3-methoxyphenyl)pyrrolo[1,2-f][1,2,4]triazin-4(3H)-one level at 30 mg/kg, po qd at 20 hrs. The note with it: in vivo. In kind it is ADME, organism-based.
A short description of data set [9]: Ratio of free drug level in brain of Sprague-Dawley rat assessed as 6-(4-chlorophenyl)-3-(4-(2-hydroxypropoxy)-3-methoxyphenyl)pyrrolo[1,2-f][1,2,4]triazin-4(3H)-one level at 30 mg/kg, po to Ki for rat MCHR1. In kind it is ADME, organism-based. The note with it: in vivo.
Data set [10] relates to Brain. In words: Drug concentration in Sprague-Dawley rat brain assessed as 6-(4-chlorophenyl)-3-(4-(2-hydroxypropoxy)-3-methoxyphenyl)pyrrolo[1,2-f][1,2,4]triazin-4(3H)-one level at 10 mg/kg, po qd after 10 days. In kind it is ADME, organism-based. As to conditions: in vivo, 240 h, read-out: Drug uptake.
In data set [11] the test system is Rattus norvegicus. In words: Antiobesity activity in Sprague-Dawley rat assessed as body weight reduction at 3 mg/kg, po qd after 4 days relative to control. In kind it is functional. As to conditions: 96 h.
Data set [12] has as its system Brain. In words: Drug concentration in Sprague-Dawley rat brain assessed as 6-(4-chlorophenyl)-3-(4-(2-hydroxypropoxy)-3-methoxyphenyl)pyrrolo[1,2-f][1,2,4]triazin-4(3H)-one level at 3 mg/kg, po qd after 10 days. In kind it is ADME, organism-based. As to conditions: in vivo, 240 h, read-out: Drug uptake.
Data set [13] deals with Rattus norvegicus. Kind of data set: Antiobesity activity in Sprague-Dawley rat assessed as body weight reduction at 30 mg/kg, po qd after 4 days relative to control. The note with it: 96 h. In kind it is functional.
In data set [14] the test system is Plasma. In words: Fraction unbound in Sprague-Dawley rat plasma assessed as 6-(4-chlorophenyl)-3-(4-(2-hydroxy-2-methylpropoxy)-3-methoxyphenyl)thieno[3,2-d]pyrimidin-4(3H)-one level. The class given is ADME, cell-free.
Data set [15] deals with Brain. In words: Free drug level in Sprague-Dawley rat brain assessed as 6-(4-chlorophenyl)-3-(4-(2-hydroxy-2-methylpropoxy)-3-methoxyphenyl)thieno[3,2-d]pyrimidin-4(3H)-one level at 10 mg/kg, po qd at 20 hrs. In kind it is ADME, organism-based. As to conditions: in vivo.
Data set [16] concerns Rattus norvegicus. Kind of data set: Prodrug conversion in oral-dosed Sprague-Dawley rat assessed as 6-(4-chlorophenyl)-3-(4-(2,3-dihydroxy-2-methylpropoxy)-3-methoxyphenyl)thieno[3,2-d]pyrimidin-4(3H)-one formation. The class given is ADME, organism-based. As to conditions: in vivo.
In data set [17] the test system is Rattus norvegicus. Kind of data set: Prodrug conversion in oral-dosed Sprague-Dawley rat assessed as 3-(4-(6-(4-chlorophenyl)-4-oxothieno[3,2-d]pyrimidin-3(4H)-yl)-2-methoxyphenoxy)-2-hydroxy-2-methylpropanoic acid formation. In kind it is ADME, organism-based. The note with it: in vivo.
The nature of data set [18]: Ratio of free drug level in brain of Sprague-Dawley rat assessed as 6-(4-chlorophenyl)-3-(4-(2-hydroxy-2-methylpropoxy)-3-methoxyphenyl)thieno[3,2-d]pyrimidin-4(3H)-one level at 10 mg/kg, po to Ki for rat MCHR1. The class given is ADME, organism-based. As to conditions: in vivo.

Take `COc1cc(-n2cnc3cc(-c4ccc(Cl)cc4)sc3c2=O)ccc1OCC(C)O` (centres undefined): the Activity entry in the data set on Rattus norvegicus [1] is recorded as “Toxic”.
Take `COc1cc(-n2cnn3cc(-c4ccc(Cl)cc4)cc3c2=O)ccc1OCC(C)OC(=O)[C@@H](N)C(C)C` (some centres undefined): the Activity entry in the data set on Rattus norvegicus [2] was “Toxic”. The results for the Drug metabolism in the data set on Liver [3] and in the data set on Liver [4] were 46 µM and 6 µM, respectively. The inhibition in vivo at 10 mg/kg with Rattus norvegicus [5] turned out to be 3.9%. Besides, the Fu with Plasma [6] worked out at 0.4%. The concentration with Brain [7] was found to be 20.8 µM; with Brain [10], 12.9 µM; with Brain [12], 4.12 µM. Moreover, in the data set with Brain [8], the “Drug uptake(free)” value amounted to 8.4 nM. Besides, in data set [9], the Ratio is listed as 6. In the data set with Rattus norvegicus [11], the inhibition in vivo at 3 mg/kg came out at 2.6%. Moreover, the inhibition in vivo at 30 mg/kg in the data set with Rattus norvegicus [13] was 7.6%.
For `COc1cc(-n2cnc3cc(-c4ccc(Cl)cc4)sc3c2=O)ccc1OCC(C)(C)OC(=O)CN`, in the data set with Plasma [14], the Fu stood at 0.7%. In addition, the inhibition in vivo at 10 mg/kg in the data set on Rattus norvegicus [5] was found to be 6.9%. The “Drug uptake(free)” value in the data set with Brain [15] is listed as 11.3 nM. Besides, the Drug metabolism result with Rattus norvegicus [16] and with Rattus norvegicus [17] was “metabolite_detected” throughout. Moreover, in data set [18], the Ratio is recorded as 1.6.

The values are drawn from ChEMBL document CHEMBL3616440, “Non-basic azolotriazinone MCHR1 antagonists for the treatment of obesity: An empirical brain-exposures-driven candidate selection for in vivo efficacy studies” (Bioorg Med Chem Lett, 2015).
